Data reported in PubChem BioAssay AID504609 (Sanford-Burnham Center for Chemical Genomics, 2011).
Active and inactive are the calls of the source.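 Rule for the calls: active = IC50 under a set limit, which marks the compound as nonspecific in this counterscreen; inactive = the rest.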

Molecular target: SaOS-2 dox-inducible full-length luciferase, luminescence counterscreen
Assay: full-length luciferase signal inhibition, dose response, counter-screen for Mdm2/MdmX interaction inhibitor project, cell-based, SaOS-2, dox-inducible (AID 504609)

SMILES	IC50
O=c1oc2ccccc2cc1-c1cn(-c2ccccc2)c(=S)[nH]1	2.38 µM
CCN(CC)S(=O)(=O)c1ccc(NC(=O)c2cccnc2Cl)c(NC(=O)c2cccnc2Cl)c1	5.16 µM
Cc1nc(NC2=NCN(CCCN3CCOCC3)CN2)nc2c(C)cccc12	13.8 µM
COCCn1c(C)cc(C2=NNC(=Nc3ccccc3F)SC2)c1C	0.137 µM
CC(C)c1cccc(O)c(=O)c1	2.27 µM
CCN1C/C(=C/c2ccc(OC)c(O)c2)C(=O)/C(=C/c2ccc(OC)c(O)c2)C1	7.64 µM
CC1(C)C(=O)Nc2ccccc2N1C(=O)Cn1ncc(Cl)c(Cl)c1=O	8.88 µM
C/C(=N\Nc1cc(C)nc(-c2ccccc2O)n1)c1ccccc1O	11.5 µM
CCOc1cc(N2CCOCC2)c(OCC)cc1NC(=O)COc1cccc2cccnc12	12.5 µM
CCOC(=O)/C=C/C(=O)OCC(=O)NC(c1ccccc1)c1ccccc1	2.41 µM
Cn1nc([N+](=O)[O-])nc1Sc1nnc(-c2ccccc2)o1	7.44 µM
O=C(CN1CCCc2ccccc21)N/N=C/c1c(O)ccc2ccccc12	1.57 µM
Cc1cccn2c(=O)c3cc(C(=O)NCCc4ccccc4)c(=N)n(Cc4ccco4)c3nc12	3.58 µM
CC(=O)c1ccc(-c2ccc(C(=O)Nc3nc(-c4ccccn4)cs3)o2)cc1	5.78 µM
O=[N+]([O-])c1ccccc1S(=O)(=O)Nc1cccc2cccnc12	2.67 µM
COc1ccc2c(c1)C1(Nc3ccccc3-c3nc4ccccc4n31)C(=O)N2C (stereo not given)	1.75 µM
COc1ccc(-c2cc3c(=O)n(CC(=O)NCCCN4CCC(N5CCCCC5)CC4)nc(C)n3n2)cc1	15.5 µM
CCOC(=O)c1ccc(Nc2nc(N)c3cc(OC)c(OC)cc3n2)cc1	> 79 µM (inactive)
COc1cc(-c2nc(-c3ccc(NC(=O)c4ccc5c(c4)OCO5)cc3)no2)cc(OC)c1OC	3.87 µM
O=C(/C=C/c1c(F)cccc1Cl)c1ccc(O)cc1	6.23 µM
